# Reference: patent US20080292619A1, “Pharmaceutical Composition Containing Meltrin Antagonist” (MOCHIDA PHARMACEUTICAL CO., LTD., priority 2004, published 2008)
# In the oligonucleotide strings, read from the 5' end, every base follows the letter of its sugar. An asterisk marks phosphorothioate; unmarked linkages are phosphodiester. Other units and linkages are bracketed, terminal groups are in braces. A string of capitals states the bases alone. d = 2'-deoxy (DNA)
# System: human meltrin α RNA
# Assay: Suppression of human meltrin α expression by antisense compound in RD cell (real time PCR)
# Format: cell-based
# Conditions: 50 nM; RD cell; corrected by GAPDH
# In short: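 RD cells transfected with heat-denatured antisense oligodeoxynucleotide plus Lipofectin in Opti-MEM for 4 h at 37° C, then cultured 18 h. Meltrin α RNA quantified by TaqMan RT-PCR against plasmid standard curve, GAPDH-corrected; suppression vs untreated cells, rated +/++/+++ for ≥30/50/70%.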
row,Substance,"suppression rate of expression, 50 nM"
1,"H136 + 5: ggccgttgaggggtctgctg (GGCCGTTGAGGGGTCTGCTG; antisense; DNA, all phosphorothioate, methylation of C not given here)",+ (“+” when the suppression rate was at least 30%)
2,"H133 + 1: cggtgggtaggaatctggcg (CGGTGGGTAGGAATCTGGCG; antisense; DNA, all phosphorothioate, methylation of C not given here)",++ (“++” when the suppression rate was at least 50%)
3,"H144 + 5: gcaggcagaggcttctgagg (GCAGGCAGAGGCTTCTGAGG; antisense; DNA, all phosphorothioate, methylation of C not given here)",++ (“++” when the suppression rate was at least 50%)
4,"H144 + 9: atctgcaggcagaggcttct (ATCTGCAGGCAGAGGCTTCT; antisense; DNA, all phosphorothioate, methylation of C not given here)",+ (“+” when the suppression rate was at least 30%)
5,H173: agctgcatctggtaccataa (dA*dG*dC*dT*dG*dC*dA*dT*dC*dT*dG*dG*dT*dA*dC*dC*dA*dT*dA*dA; antisense),++ (“++” when the suppression rate was at least 50%)
6,"H139 + 13: aggtgcacgtggggcccggt (AGGTGCACGTGGGGCCCGGT; antisense; DNA, all phosphorothioate, methylation of C not given here)",+ (“+” when the suppression rate was at least 30%)
7,"H144 + 14: agaggatctgcaggcagagg (AGAGGATCTGCAGGCAGAGG; antisense; DNA, all phosphorothioate, methylation of C not given here)",++ (“++” when the suppression rate was at least 50%)
8,H145 + 3: gttctggccagaggatctgc (dG*dT*dT*dC*dT*dG*dG*dC*dC*dA*dG*dA*dG*dG*dA*dT*dC*dT*dG*dC; antisense),++ (“++” when the suppression rate was at least 50%)
9,"H132 + 19: gtgggtaggaatctggcggc (GTGGGTAGGAATCTGGCGGC; antisense; DNA, all phosphorothioate, methylation of C not given here)",+ (“+” when the suppression rate was at least 30%)
10,"H139 + 19: gacgctaggtgcacgtgggg (GACGCTAGGTGCACGTGGGG; antisense; DNA, all phosphorothioate, methylation of C not given here)",+ (“+” when the suppression rate was at least 30%)
11,"H144 + 15: cagaggatctgcaggcagag (CAGAGGATCTGCAGGCAGAG; antisense; DNA, all phosphorothioate, methylation of C not given here)",+ (“+” when the suppression rate was at least 30%)
12,"H011: gcgaccggagggatttcctg (GCGACCGGAGGGATTTCCTG; antisense; DNA, all phosphorothioate, methylation of C not given here)",+ (“+” when the suppression rate was at least 30%)
13,"H143 + 14: cttctgaggggggtttggct (CTTCTGAGGGGGGTTTGGCT; antisense; DNA, all phosphorothioate, methylation of C not given here)",+ (“+” when the suppression rate was at least 30%)
14,H148 + 10: gggtgccaggcggagcccag (dG*dG*dG*dT*dG*dC*dC*dA*dG*dG*dC*dG*dG*dA*dG*dC*dC*dC*dA*dG; antisense),++ (“++” when the suppression rate was at least 50%)

# Same assay, conditions: 200 nM; RD cell; corrected by GAPDH
row,Substance,"suppression rate of expression, 200 nM"
1,H068: gctcatgtgccagggtcacg (dG*dC*dT*dC*dA*dT*dG*dT*dG*dC*dC*dA*dG*dG*dG*dT*dC*dA*dC*dG; antisense),+ (“+” when the suppression rate was at least 30%)
2,H210: ccccatagagaaggttcttt (dC*dC*dC*dC*dA*dT*dA*dG*dA*dG*dA*dA*dG*dG*dT*dT*dC*dT*dT*dT; antisense),++ (“++” when the suppression rate was at least 50%)
3,H173: agctgcatctggtaccataa (dA*dG*dC*dT*dG*dC*dA*dT*dC*dT*dG*dG*dT*dA*dC*dC*dA*dT*dA*dA; antisense),+++ (“+++” when the suppression rate was at least 70%)
4,H152: cttctcacttaatataggcg (dC*dT*dT*dC*dT*dC*dA*dC*dT*dT*dA*dA*dT*dA*dT*dA*dG*dG*dC*dG; antisense),+ (“+” when the suppression rate was at least 30%)
5,H085: gcgcacacagcgtccggctt (dG*dC*dG*dC*dA*dC*dA*dC*dA*dG*dC*dG*dT*dC*dC*dG*dG*dC*dT*dT; antisense),+ (“+” when the suppression rate was at least 30%)
6,H184: ggctacaccttaagattcct (dG*dG*dC*dT*dA*dC*dA*dC*dC*dT*dT*dA*dA*dG*dA*dT*dT*dC*dC*dT; antisense),+ (“+” when the suppression rate was at least 30%)
7,H176: ggctctggcctgagatgggg (dG*dG*dC*dT*dC*dT*dG*dG*dC*dC*dT*dG*dA*dG*dA*dT*dG*dG*dG*dG; antisense),+ (“+” when the suppression rate was at least 30%)
8,H169: catcctgtccagaatcccat (dC*dA*dT*dC*dC*dT*dG*dT*dC*dC*dA*dG*dA*dA*dT*dC*dC*dC*dA*dT; antisense),++ (“++” when the suppression rate was at least 50%)
9,H084: cagggtacaggtggtggcat (dC*dA*dG*dG*dG*dT*dA*dC*dA*dG*dG*dT*dG*dG*dT*dG*dG*dC*dA*dT; antisense),++ (“++” when the suppression rate was at least 50%)
10,H061: agctgcgcattgtcatggga (dA*dG*dC*dT*dG*dC*dG*dC*dA*dT*dT*dG*dT*dC*dA*dT*dG*dG*dG*dA; antisense),+ (“+” when the suppression rate was at least 30%)
11,H098: ctctctcaaagcagatccca (dC*dT*dC*dT*dC*dT*dC*dA*dA*dA*dG*dC*dA*dG*dA*dT*dC*dC*dC*dA; antisense),+ (“+” when the suppression rate was at least 30%)
12,"H028: ctttccagatttatgatcag (CTTTCCAGATTTATGATCAG; antisense; DNA, all phosphorothioate, methylation of C not given here)",+ (“+” when the suppression rate was at least 30%)
13,H180: ccctgggagcctgcctgcca (dC*dC*dC*dT*dG*dG*dG*dA*dG*dC*dC*dT*dG*dC*dC*dT*dG*dC*dC*dA; antisense),++ (“++” when the suppression rate was at least 50%)
14,H079: tggcccccgaaagactccct (dT*dG*dG*dC*dC*dC*dC*dC*dG*dA*dA*dA*dG*dA*dC*dT*dC*dC*dC*dT; antisense),++ (“++” when the suppression rate was at least 50%)
15,H058: tcatggaggctggtgaatgg (dT*dC*dA*dT*dG*dG*dA*dG*dG*dC*dT*dG*dG*dT*dG*dA*dA*dT*dG*dG; antisense),++ (“++” when the suppression rate was at least 50%)
16,"H012: gccgagcggggccgggcgtc (GCCGAGCGGGGCCGGGCGTC; antisense; DNA, all phosphorothioate, methylation of C not given here)",+++ (“+++” when the suppression rate was at least 70%)
17,"H011: gcgaccggagggatttcctg (GCGACCGGAGGGATTTCCTG; antisense; DNA, all phosphorothioate, methylation of C not given here)",++ (“++” when the suppression rate was at least 50%)
18,H243: cagcagtattattttccagc (DNA dC*dA*dG*dC*dA*dG*dT*dA*dT*dT*dA*dT*dT*dT*dT*dC*dC*dA*dG*dC; antisense),+ (“+” when the suppression rate was at least 30%)
19,"H032: aatttcgagcgagggagaca (AATTTCGAGCGAGGGAGACA; antisense; DNA, all phosphorothioate, methylation of C not given here)",+ (“+” when the suppression rate was at least 30%)
20,H188: ccccttccaaacatgctcac (dC*dC*dC*dC*dT*dT*dC*dC*dA*dA*dA*dC*dA*dT*dG*dC*dT*dC*dA*dC; antisense),+ (“+” when the suppression rate was at least 30%)
21,H092: gcccatcgtgcaggtacacg (dG*dC*dC*dC*dA*dT*dC*dG*dT*dG*dC*dA*dG*dG*dT*dA*dC*dA*dC*dG; antisense),++ (“++” when the suppression rate was at least 50%)

# Same assay, conditions: 200 nM; chimeric 2′-methoxy antisense oligonucleotides; RD cell
row,Substance,"suppression rate of expression, 200 nM"
1,"H076-OMe1: chimeric antisense oligonucleotide GCTGGtctccaagtcCTTCC, uppercase 2′-methoxy nucleotides, lowercase phosphorothioate nucleotides (GCTGGTCTCCAAGTCCTTCC; 2'-O-methyl at 1, 2, 3, 4, 5, 16, 17, 18, 19, 20, other sugars, backbone and T or U not given here; lowercase gap nucleotides phosphorothioate)",++ (“++” when the suppression rate was at least 50%)
2,"H076-OMe2: chimeric antisense oligonucleotide CTTTCtccaggctggTCTCC, uppercase 2′-methoxy nucleotides, lowercase phosphorothioate nucleotides (CTTTCTCCAGGCTGGTCTCC; 2'-O-methyl at 1, 2, 3, 4, 5, 16, 17, 18, 19, 20, other sugars, backbone and T or U not given here; lowercase gap nucleotides phosphorothioate)",+++ (“+++” when the suppression rate was at least 70%)
3,"H075-OMe2: chimeric antisense oligonucleotide AAGTCcttcctgctgCAACT, uppercase 2′-methoxy nucleotides, lowercase phosphorothioate nucleotides (AAGTCCTTCCTGCTGCAACT; 2'-O-methyl at 1, 2, 3, 4, 5, 16, 17, 18, 19, 20, other sugars, backbone and T or U not given here; lowercase gap nucleotides phosphorothioate)",+ (“+” when the suppression rate was at least 30%)
